Data: patent publication US8404279B2, “Method for improving the bud quality of a plant” (Bayer CropScience AG, priority 2007, dated 2013)
Read-outs that look alike come from different tables or passages of the source. Marks after values point to notes of the source that are not given here.

Key:
[1] = system: flower bud dieback on pear trees (Conference variety); assay: Flower bud quality field trial against flower bud dieback on young pear trees; assay type: in vivo, pear trees (Conference cultivar); settings: for Good quality buds (%) 1 yw S: 1-year old wood side position; for Good quality buds (%) 1 yw S / Good quality buds (%) 1 yw T / Good quality buds (%) 2 yw / Good quality buds (%) Per tree: treated 2004 and 2005, 2006 flower buds; for Good quality buds (%) 1 yw T: 1-year old wood terminal position; for Good quality buds (%) 2 yw: 2-year old wood
Method: (§1) During three consecutive years 2004, 2005 and 2006, a trial was carried out on young pear trees of the Conference cultivar on a Quince Adams stock. The pear trees of this orchard were planted in 1999 according to the system of a single row at a planting distance of 3.5 m between the rows and 1.5 m in the row with a tree height of 3 m.
(§2) During the 2004 trial, three products were compared in an arbitrary block design with 10 trees per plot in four repeats: the observations were made on the 8 trees inside the plot. […] The applications were in the post-flower period at an interval of 10 days.
(§3) In 2005, the same applications were repeated on the same trees.
In 2006, the complete trial was repeated on new trees in the same orchard. The fosetyl-Al doses varying between 2 and 3.75 kg/ha of standard orchard (corresponding to doses varying from 1.33 to 2.50 kg/ha of foliar surface area) were applied in the post-flower period during the months of May and June at an interval of 5 or 10 days between the treatments. Benzothiadiazole applied at a dose of 200 g/ha of standard orchard (corresponding to a dose of 133 g/ha of foliar surface area) was included as reference product in order to induce plant defense reactions by the trees.
(§4) After one year during flowering, the effect of the treatments on the quality of the flower bud was evaluated. Statistical analysis of the various parameters is performed (Unistat Statistical Package, Version 5.5). The original or processed data are analyzed according to the General Linear Model and the treatment means are separated in a standard manner using the Duncan multiple classification test (5% level).

[2] = system: pear trees (Conference cultivar); assay: Productivity of the pear trees after the treatments (field trial); assay type: in vivo; settings: 2006, treated 2004 and 2005
Method: as §1, §2, §3, §4

[3] = flower buds 2006; for Fosetyl-Al residue: 10 days
Source text: In 2006, the magnitude of the levels of fosetyl-Al and phosphorous acid residues in the developing flower buds was monitored on three plots: in the control untreated plot, in the plot treated with fosetyl-Al based on 3×3.75 kg/ha (application on 18/05, 30/05 and 08/06) and in the plot treated with fosetyl-Al based on 6×2.0 kg/ha (application on 18/05, 30/05, 08/06, 19/06, 29/06 and 10/07).
On each date (with the exception of the first sampling date), 40 flower buds with their surrounding leaves were gathered. On the first sampling date, 40 flower buds were gathered without leaves.
The flower bud samples were taken before the next treatment on the following dates: 30/05, 08/06, 19/06, 28/06, 10/07 and 28/08. For the two fosetyl-Al and phosphorous acid products, the levels of residues in the flower buds were determined with the aid of an LC-MS-MS analytical method. The limit of quantification (LOQ) was 0.1 mg/kg for fosetyl-Al, 2 mg/kg for phosphorous acid and 3 mg/kg for the total residue expressed as fosetyl-Al equivalent. The total residue is the sum of the residues derived from fosetyl-Al and phosphorous acid expressed as fosetyl-Al equivalent.
The results are calculated according to the following formula:
[formula] in which: • Mfosetyl-Al represents the molecular weight of fosetyl-Al: 354.1 g/mol • Mphosphorous acid represents the molecular mass of phosphorous acid: 82 g/mol; multiplied by 3, since 1 mol of fosetyl-Al corresponds to 3 mol of phosphorous acid.
For the pear bud samples, the fosetyl-Al and phosphorous acid residues are extracted with the aid of an acetonitrile/water (50:50, v/v) mixture. After centrifugation and dilution of the sampling material, the residues are quantified by HPLC and detected by tandem mass spectrometry with electrospray ionization. The quantification is performed by external standardization. The statistical analysis is performed per parameter on the complete set of data for the different sampling dates.

[4] = system: pear trees (Conference cultivar); settings: plot treated at 3.75 kg/ha, 2004 treatments
Source text: as §2, §3

[5] = 3 x 0.2 kg/ha May interval 10 + 3 x 0.2 kg/ha June interval 14
[6] = treated 2004, 2005 flower buds, 3 x 0.2 kg/ha May interval 10 + 3 x 0.2 kg/ha June interval 14
[7] = treated 2006, 2007 flower buds, 3 x 0.2 kg/ha May, interval 10
[8] = 3 x 3.75 kg/ha May interval 10 + 3 x 3.75 kg/ha June interval 14
[9] = 3 x 3.75 kg/ha May, interval 10
[10] = 3 x 3.75 kg/ha May, primary efflorescence
[11] = treated 2004, 2005 flower buds, 3 x 3.75 kg/ha May interval 10 + 1 x 3.75 kg/ha AH
[12] = treated 2004, 2005 flower buds, 3 x 3.75 kg/ha May interval 10 + 3 x 3.75 kg/ha June interval 14
[13] = treated 2004, 2005 flower buds, 3 x 3.75 kg/ha May, interval 10
[14] = treated 2006, 2007 flower buds, 3 x 3.75 kg/ha June, interval 10
[15] = treated 2006, 2007 flower buds, 3 x 3.75 kg/ha May, interval 10
[16] = treated 2006, 2007 flower buds, 6 x 2 kg/ha June, interval 5
[17] = treated 2006, 2007 flower buds, 6 x 2 kg/ha May, interval 5
[18] = treated 2006, 2007 flower buds, 6 x 2 kg/ha May-June, interval 10
[19] = 3 x 3.75 kg/ha May interval 10 + 3 x 3.75 kg/ha June interval 14, object excluded from statistical analysis
[20] = treated 2004, 2005 flower buds, 3 x dose 3 (kg/ha) May, interval 10
[21] = treated 2004, 2005 flower buds, 3 x dose 11.25 (kg/ha) May, interval 10

c1ccc2snnc2c1 [Benzothiadiazole, benzothiadiazole]
Good quality buds (%) 1 yw S [1, 5]: 56.6% | Good quality buds (%) 1 yw T [1, 5]: 54.6% | Good quality buds (%) 2 yw [1, 5]: 58.5% | activity on flower bud quality ([1]; 2004 treatments, 2005 buds, reference product): insufficient activity | Buds of good quality [1, 6]: 71.2% | Number of incomplete buds/tree [1, 6]: 22.5 buds/tree | Good quality buds (%) Per tree [1, 5]: 62.8% | Buds that have died back (%) [1, 7]: 43.5% | Good quality buds (%) [1, 7]: 44.2% | Number of incomplete buds/tree [1, 7]: 12.3 buds/tree | Average weight [2, 5]: 163.2 g | Number of fruits/tree [2, 5]: 113.88 fruits/tree | Productivity (kg/tree) [2, 5]: 18.5 kg/tree

CCO[PH](=O)O.[Al] [Fosetyl-Al, aluminum ethyl hydrogen phosphonate]
Good quality buds (%) 1 yw S [1, 8]: 68.4% | Good quality buds (%) 1 yw S [1, 9]: 56.5% | Good quality buds (%) 1 yw S [1, 10]: 69.8% | Good quality buds (%) 1 yw T [1, 8]: 97.2% | Good quality buds (%) 1 yw T [1, 9]: 82.7% | Good quality buds (%) 1 yw T [1, 10]: 90.2% | Good quality buds (%) 2 yw [1, 8]: 86.1% | Good quality buds (%) 2 yw [1, 9]: 75.1% | Good quality buds (%) 2 yw [1, 10]: 68.2% | flower bud quality with an additional treatment after harvesting versus post-flower treatments alone ([1]; 2004 treatments, 2005 buds): results comparable | Buds of good quality [1, 11]: 88.3% | Number of incomplete buds/tree [1, 11]: 9.2 buds/tree | Buds of good quality [1, 12]: 89.3% | Number of incomplete buds/tree [1, 12]: 7.9 buds/tree | Buds of good quality [1, 13]: 88.4% | Number of incomplete buds/tree [1, 13]: 7.9 buds/tree | Good quality buds (%) Per tree [1, 8]: 92.3% | Good quality buds (%) Per tree ([1]; 3 x 3.75 kg/ha May interval 10 + 3 x 3.75 kg/ha June interval 14, listed as fosetyl-Al): 92% | Good quality buds (%) Per tree [1, 9]: 85.9% | Good quality buds (%) Per tree ([1]; 3 x 3.75 kg/ha May, interval 10, listed as fosetyl-Al): 86% | Good quality buds (%) Per tree [1, 10]: 75.4% | Good quality buds (%) Per tree ([1]; 3 x 3.75 kg/ha May, primary efflorescence, listed as fosetyl-Al): 75% | percentages of flower buds that have died back or that are incomplete ([1]; treated 2006, 2007 buds, all objects treated with fosetyl-Al): significantly reduced | Buds that have died back (%) [1, 14]: 31.6% | Good quality buds (%) [1, 14]: 62.5% | Number of incomplete buds/tree [1, 14]: 5.9 buds/tree | Buds that have died back (%) [1, 15]: 33.4% | Good quality buds (%) [1, 15]: 59.3% | Number of incomplete buds/tree [1, 15]: 7.2 buds/tree | Good quality buds (%) ([1]; treated 2006, 2007 flower buds, 3 x 3.75 kg/ha May, interval 10, listed as fosetyl-Al): 59% | Buds that have died back (%) [1, 16]: 31.5% | Good quality buds (%) [1, 16]: 63.5% | Number of incomplete buds/tree [1, 16]: 5 buds/tree | Buds that have died back (%) [1, 17]: 33% | Good quality buds (%) [1, 17]: 59.6% | Number of incomplete buds/tree [1, 17]: 7.4 buds/tree | Good quality buds (%) ([1]; treated 2006, 2007 flower buds, 6 x 2 kg/ha May, interval 5, listed as fosetyl-Al): 59% | Buds that have died back (%) [1, 18]: 33.9% | Good quality buds (%) [1, 18]: 61.2% | Number of incomplete buds/tree [1, 18]: 4.9 buds/tree | Average weight (g) [2, 19]: 137.9* g | Number of fruits/tree [2, 19]: 152.2* fruits/tree | Productivity (kg/tree) [2, 19]: 21* kg/tree | Average weight [2, 9]: 144.8 g | Number of fruits/tree [2, 9]: 148.8 fruits/tree | Productivity (kg/tree) [2, 9]: 21.5 kg/tree | Average weight [2, 10]: 157.7 g | Number of fruits/tree [2, 10]: 140.4 fruits/tree | Productivity (kg/tree) [2, 10]: 22.1 kg/tree | time the level of fosetyl-Al residue was maintained after the last treatment ([3]; dose of 3.75 kg/ha): approximately 4 weeks | Fosetyl-Al residue ([3]; fosetyl-Al 3 x 3.75 kg/ha May, sampling 08/06): 12.92 mg/kg | Fosetyl-Al residue ([3]; fosetyl-Al 3 x 3.75 kg/ha May, sampling 10/07): 2.14 mg/kg | Fosetyl-Al residue ([3]; fosetyl-Al 3 x 3.75 kg/ha May, sampling 19/06): 10.65 mg/kg | Fosetyl-Al residue ([3]; fosetyl-Al 3 x 3.75 kg/ha May, sampling 28/06): 10.83 mg/kg | Fosetyl-Al residue ([3]; fosetyl-Al 3 x 3.75 kg/ha May, sampling 28/08): 0.11 mg/kg | Fosetyl-Al residue ([3]; fosetyl-Al 3 x 3.75 kg/ha May, sampling 30/05): 0.1 mg/kg | Fosetyl-Al residue ([3]; fosetyl-Al 6 x 2 kg/ha May-June, sampling 08/06): 10.64 mg/kg | Fosetyl-Al residue ([3]; fosetyl-Al 6 x 2 kg/ha May-June, sampling 10/07): 2.86 mg/kg | Fosetyl-Al residue ([3]; fosetyl-Al 6 x 2 kg/ha May-June, sampling 19/06): 4.52 mg/kg | Fosetyl-Al residue ([3]; fosetyl-Al 6 x 2 kg/ha May-June, sampling 28/06): 20.56 mg/kg | Fosetyl-Al residue ([3]; fosetyl-Al 6 x 2 kg/ha May-June, sampling 28/08): 0.18 mg/kg | Fosetyl-Al residue ([3]; fosetyl-Al 6 x 2 kg/ha May-June, sampling 30/05): 0.1 mg/kg | phytotoxicity [4]: absence of phytotoxicity

potassium phosphonate
Buds of good quality [1, 20]: 89.5% | Number of incomplete buds/tree [1, 20]: 7.2 buds/tree | Buds of good quality [1, 21]: 92.4% | Number of incomplete buds/tree [1, 21]: 4.8 buds/tree
